According to patent publication US9790211B2, “5-amino-quinoline-8-carboxamide derivatives as 5-HT4 receptor agonists” (SUVEN LIFE SCIENCES LIMITED, priority 2013, dated 2017):

What was measured:
Male Wistar rats = experiment: Object recognition task model; type: in vivo; details: dose mg/kg: Ex 1 0.1, Ex 2 0.03, Ex 4 0.03, Ex 13 1, Ex 23 0.01, Ex 37 10, Ex 43 0.3; for Exploration time mean ± S.E.M, Familiar object / Exploration time mean ± S.E.M, Novel object: choice trial T2, p.o.; for Inference: p.o.
Protocol: The cognition enhancing properties of compounds of this invention were estimated by using this model.
Male Wistar rats (230-280 grams) were used as experimental animals. Four animals were housed in each cage. Animals were kept on 20% food deprivation before one day and given water ad libitum throughout the experiment and maintained on a 12 hours light/dark cycle. Also the rats were habituated to individual arenas for 1 hour in the absence of any objects.
One group of 12 rats received vehicle (1 mL/Kg) orally and another set of animals received compound of the formula (I) either orally or i.p., before one hour of the familiar (T1) and choice trial (T2).
The experiment was carried out in a 50×50×50 cm open field made up of acrylic. In the familiarization phase, (T1), the rats were placed individually in the open field for 3 minutes, in which two identical objects (plastic bottles, 12.5 cm height×5.5 cm diameter) covered in yellow masking tape alone (a1 and a2) were positioned in two adjacent corners, 10 cms from the walls. After 24 hours of the (T1) trial for long-term memory test, the same rats were placed in the same arena as they were placed in T1 trial. Choice phase (T2) rats were allowed to explore the open field for 3 minutes in presence of one familiar object (a3) and one novel object (b) (Amber color glass bottle, 12 cm high and 5 cm in diameter). Familiar objects presented similar textures, colors and sizes. During the T1 and T2 trial, explorations of each object (defined as sniffing, licking, chewing or having moving vibrissae whilst directing the nose towards the object at a distance of less than 1 cm) were recorded separately by stopwatch. Sitting on an object was not regarded as exploratory activity, however, it was rarely observed.
T1 is the total time spent exploring the familiar objects (a1+a2).
T2 is the total time spent exploring the familiar object and novel object (a3+b).
The object recognition test was performed as described by Behaviour Brain Research, (1988), 31, 47-59.

[1] = molecular target: T1, recombinant human 5-HT4 receptor (Homo sapiens, UniProt Q13639); experiment: Determination of EC50 values for 5-HT4 receptor (CHO cells, pCRE-Luc reporter); type: cell-based; details: for Emax: CHO
T1 construct: expressed in transfected cells
T1 sequence (Q13639 whole entry): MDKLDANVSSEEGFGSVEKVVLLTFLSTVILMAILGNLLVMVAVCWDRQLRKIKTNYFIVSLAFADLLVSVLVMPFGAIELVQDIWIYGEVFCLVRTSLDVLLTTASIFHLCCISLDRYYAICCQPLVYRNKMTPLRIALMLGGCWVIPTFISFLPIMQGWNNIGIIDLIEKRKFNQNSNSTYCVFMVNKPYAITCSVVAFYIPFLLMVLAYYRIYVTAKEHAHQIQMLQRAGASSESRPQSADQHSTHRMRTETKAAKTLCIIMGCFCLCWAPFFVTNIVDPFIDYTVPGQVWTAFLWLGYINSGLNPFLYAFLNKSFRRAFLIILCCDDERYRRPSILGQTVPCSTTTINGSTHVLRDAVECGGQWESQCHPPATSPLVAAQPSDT
Outline: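 CHO cells stably expressing human 5-HT4 receptor with a CRE-luciferase reporter, serum-starved overnight, then exposed to increasing compound concentrations in OptiMEM for 4 h at 37 °C. Cells lysed and luciferase luminescence plotted against concentration.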

sAPPα = experiment: Estimation of mice brain cortical sAPPα levels (ELISA); type: in vivo; details: s.c., 60 minutes post treatment
Protocol: The control group of mice received sterile water for injection subcutaneously (s.c.). […] Mice were sacrificed 60 minutes after the drug injection by cervical dislocation, the brains were quickly isolated and the cortex was dissected at −20° C. The cortex was immediately kept on a dry ice and weighed before being stored at −80° C. until Enzyme-linked immunosorbent assay (ELISA) was performed. • 1. Brain tissues were thawed and Tris Buffer Saline containing protease inhibitors (TBS, 4 times by volume) added (0.8 mL/200 mg tissues). • 2. Brain tissue samples were homogenized using glass-Teflon homogenizer at 10 strokes. The resulting homogenates were centrifuged at 15,000 rpm at 4° C. for 60 minutes. • 3. The supernatant was discarded and to the precipitate, 4 times volume (0.8 mL/200 mg tissues) of TBS was added. Again homogenized followed by centrifugation at 15,000 rpm 4° C. for 30 minutes. • 4. From the above centrifuged mixture the supernatant was discarded and 10 times volume of 6M Guanidine-HCl in 50 mM Tris buffer pH: 7.6 (500 μL/50 mg tissues) was added. The resulting solution was sonicated for 5 seconds, 4 times. • 5. Resulting mixture was incubated at the RT for 30 minutes, followed by centrifugation at 15,000 rpm, 4° C. for 30 minutes. From this 5 μL of supernatant solution was taken and diluted with 155 μL of EIA buffer (dilution factor 32). Measurement of sAPPα by ELISA Kit: To investigate the role of an acute treatment of test compound on sAPPα levels, we measured the expression of this protein in homogenates from the cortex of treated and untreated mice by ELISA assay. The entire procedure was followed as described in the ELISA kit manual (Mouse/Rat sAPPα ELISA, Catalog Number: JP27415, […], Hamburg, Germany). Statistical analyses were performed using the Graph Pad Prism (Version 4). Data are Mean±SD of sAPPa levels expressed as percentage of control values (mice which received water for injection). Values were compared between the different groups by using unpaired t test. The significance level was set at *p<0.05; […]; ***<0.001.

[2] = test system: Scopolamine Induced amnesia; experiment: Radial arm maze; type: in vivo; details: p.o., rats
Source text: The cognition enhancing properties of compounds of formula (I) of this invention were estimated by using this model.
Radial arm maze consists of a central hub of 45 cm diameter. Each arm was of dimension 42.5×15×24 cm. The maze was elevated to a height of 1 m above the ground. The animals were placed on a restricted diet until they reached approximately 85% of their free feeding weight. During this diet restriction period animals were habituated to the novel feed (pellets). Once the rats reached approximately 85% of their free feeding weight rats were habituated to the maze on the 1st and 2nd day. […] Animals were randomized on day 2. On the subsequent days the treatment was given as per the allotment: Each animal was introduced into the maze individually for a period of 10 minutes. The arms were baited only once and the animal had to learn the rule that repeated arm entries would not be rewarded. The trial ended once the rat had visited 16 arms or 10 minutes were over or all the pellets were eaten. The arm entries were recorded using the software. Once the trial was over the rat was removed and the maze was cleaned using soap water.

[3] = Rodent brain penetration study; type: in vivo, Male Wistar rats; details: male, Wistar, rat, brain, po, 3 mg/kg, 3 mg/kg oral (gavage), read-out: Single dose Brain Penetration (Cb/Cp)
Protocol: Male Wistar rats (225±25 grams) were used as experimental animals. Three animals were housed in each cage. Animals were given water and food ad libitum throughout the experiment and maintained on a 12 hours light/dark cycle. Brain penetration was determined in discrete manner in rats. One day prior to dosing day, male wistar rats (225-250 grams) were acclimatized. After acclimatization the rats were grouped according to their weight. In each group, 3 animals were kept in individual cage and allowed free access to food and water. At each time point (0.50, 1, and 2 hours) n=3 animals were used. The compounds of formula (I) were suitably preformulated and administered orally at (free base equivalent) 3 mg/kg. Blood samples were removed via, cardiac puncture by using isoflurane anesthesia. The animals were sacrificed to collect brain tissue. Plasma was separated and brain samples were homogenized and stored frozen at −20° C. until analysis. The concentrations of the compounds of formula (I) in plasma and brain were determined using LC-MS/MS method. The compounds of formula (I) were quantified in plasma and brain homogenate by qualified LC-MS/MS method using suitable extraction technique. The compounds of formula (I) were quantified in the calibration range of 1-500 ng/mL in plasma and brain homogenate. Study samples were analyzed using calibration samples in the batch and quality control samples spread across the batch. Extent of brain-plasma ratio was calculated (Cb/Cp).

[4] = Rodent pharmacokinetic study; type: in vivo, Male wistar rats; details: plasma, Wistar/Male rat
Protocol: Male wistar rats (225±25 grams) were used as experimental animals. Three to five animals were housed in each cage. Two days prior to dosing day, male wistar rats (225-250 grams) were anesthetized with isoflurane for surgical placement of jugular vein catheter. Animals were fasted over night before oral dosing (p.o) and food pellets were allowed 2 hours post dosing, whereas during intravenous dosing food and water were provided as ad libitum. Three rats were dosed with compounds of formula (I) (3 mg/kg) orally and intravenously (1 mg/kg).
At each time point blood was collected through jugular vein and immediately replenish with an equivalent volume of normal saline from freely moving rats. Collected blood was transferred into a labeled eppendr off containing 10 μL of heparin as anticoagulant. Typically blood samples were collected as following time points: Pre dose, 0.08 (only i.v.), 0.25, 0.5, 1, 2, 4, 6, 8, and 24 hours post dose (n=3). Blood was centrifuged at 4000 rpm for 10 minutes. Plasma was prepared and stored frozen at −20° C. until analysis. The concentrations of the compounds of formula (I) were quantified in plasma by qualified LC-MS/MS method using suitable extraction technique. The compounds of formula (I) were quantified in the calibration range around 2-2000 ng/mL in plasma. Study samples were analyzed using calibration samples in the batch and quality control samples spread across the batch.
Pharmacokinetic parameters Cmax, Tmax, AUC1, T1/2 and Bioavailability were calculated by non-compartmental model using standard non-coinpartmental model by using WinNonLin 5.0.1 or Phoenix WinNonlin 6.2 version Software package.

Row | SMILES | Exploration time mean ± S.E.M, Familiar object (Male Wistar rats) [s] | Exploration time mean ± S.E.M, Novel object (Male Wistar rats) [s] | Inference (Male Wistar rats) | Emax [1] [%] | increase in the mice brain cortical sAPPα levels (sAPPα; 0.3 mg/kg) [%] | increase in the mice brain cortical sAPPα levels (sAPPα; 1.0 mg/kg) [%] | Reversal of Scopolamine Induced amnesia - Effective dose range [2] | Kp [3] | AUC(0-t) ([4]; 1 mg/kg intravenous (bolus)) [ng·h/mL] | Cmax ([4]; 1 mg/kg intravenous (bolus)) [ng/mL] | Tmax ([4]; 1 mg/kg intravenous (bolus)) [h] | half-life ([4]; 1 mg/kg intravenous (bolus)) [h] | AUC(0-t) ([4]; 3 mg/kg oral (gavage)) [ng·h/mL] | Cmax ([4]; 3 mg/kg oral (gavage)) [ng/mL] | Tmax ([4]; 3 mg/kg oral (gavage)) [h] | half-life ([4]; 3 mg/kg oral (gavage)) [h] | bioavailability ([4]; 3 mg/kg oral vs 1 mg/kg intravenous) [%] | EC50 ([1]; CHO cells, human 5-HT4 receptor, luciferase reporter, 4 hours incubation) [nM]
1 | Nc1c(Cl)cc(C(=O)NCC2CCN(CC3(O)CCOCC3)CC2)c2ncccc12.O=C(O)C(O)C(O)C(=O)O [Example 23, 5-Amino-6-chloro-N-{[1-(4-hydroxytetrahydro-2H-pyran-4-ylmethyl)-4-piperidinyl]methyl}quinoline-8-carboxamide L(+)-tartarate] | 8.80 ± 1.46 | 16.80 ± 2.45 | Active | 67 | 42 | 33 | 0.01-0.1 mg/kg, p.o. |  |  |  |  |  |  |  |  |  |  | 
2 | CC(C)(O)CN1CCC(F)(CNC(=O)c2cc(F)c(N)c3cccnc23)CC1.O=C(O)C(O)C(O)C(=O)O [Example 43, 5-Amino-6-fluoro-N-{[4-fluoro-1-(2-hydroxy-2-methylpropyl)-4-piperidinyl]methyl} quinoline-8-carboxamide L(+)-tartarate] | 9.30 ± 0.93 | 16.09 ± 2.63 | Active | 43 |  |  |  | 0.93 ± 0.26 | 362 ± 83 | 306 ± 47 | 0.08 | 1.9 ± 0.9 | 373 ± 39 | 231 ± 40 | 0.33 ± 0.14 | 3.4 ± 2.2 | 34 ± 4 | 2.9
